Reference: ChEMBL document CHEMBL3046216, “Synthesis, biological evaluation and QSAR study of a series of substituted quinazolines as antimicrobial agents” (2013)
In brackets after ≈: the same amount, converted by molar mass. Activity calls are given as the source filed them. The rule behind the calls is not given here.

What was measured:
Format in all cases: functional
Bacillus subtilis = assay: Antimicrobial activity against Bacillus subtilis ATCC 6633 assessed as growth inhibition after 24 hr by NCCLS broth dilution method
Escherichia coli = assay: Antimicrobial activity against Escherichia coli ATCC 25922 assessed as growth inhibition after 24 hr by NCCLS broth dilution method
Staphylococcus aureus = assay: Antimicrobial activity against Staphylococcus aureus ATCC 25923 assessed as growth inhibition after 24 hr by NCCLS broth dilution method
Pseudomonas aeruginosa = assay: Antimicrobial activity against Pseudomonas aeruginosa ATCC 27853 assessed as growth inhibition after 24 hr by NCCLS broth dilution method

SMILES | MIC (Bacillus subtilis) | MIC (Bacillus subtilis; ATCC 6633, 24 h) | MIC (Escherichia coli) | MIC (Escherichia coli; ATCC 25922, 24 h) | MIC (Staphylococcus aureus) | MIC (Staphylococcus aureus; ATCC 25923, 24 h) | MIC (Pseudomonas aeruginosa) | MIC (Pseudomonas aeruginosa; ATCC 27853, 24 h)
COc1ccccc1NC(=S)Nc1cc2c(Sc3nnc(-c4cccnc4)o3)ncnc2cc1N1CCN(C)CC1 | inactive | 25 µg/mL (≈ 42.7 µM) | inactive | 25 µg/mL (≈ 42.7 µM) | inactive | 12.5 µg/mL (≈ 21.3 µM) | inactive | 50 µg/mL (≈ 85.4 µM)
S=C(Nc1cccc(Cl)c1)Nc1ccc2ncnc(Sc3nnc(-c4cccnc4)o3)c2c1 | inactive | 25 µg/mL (≈ 50.8 µM) | inactive | 50 µg/mL (≈ 102 µM) | inactive | 6.25 µg/mL (≈ 12.7 µM) | inactive | 75 µg/mL (≈ 152 µM)
S=C(Nc1ccc(Cl)cc1)Nc1ccc2ncnc(Sc3nnc(-c4cccnc4)o3)c2c1 | inactive | 12.5 µg/mL (≈ 25.4 µM) | inactive | 25 µg/mL (≈ 50.8 µM) | inactive | 25 µg/mL (≈ 50.8 µM) | inactive | 100 µg/mL (≈ 203 µM)
CN1CCN(c2cc3ncnc(Sc4nnc(-c5cccnc5)o4)c3cc2NC(=S)Nc2ccccc2Cl)CC1 | inactive | 6.25 µg/mL (≈ 10.6 µM) | inactive | 25 µg/mL (≈ 42.4 µM) | inactive | 25 µg/mL (≈ 42.4 µM) | inactive | 12.5 µg/mL (≈ 21.2 µM)
Cc1ccc(NC(=O)Nc2cc3c(Sc4nnc(-c5cccnc5)o4)ncnc3cc2N2CCN(C)CC2)cc1 | inactive | 12.5 µg/mL (≈ 22.6 µM) | inactive | 50 µg/mL (≈ 90.3 µM) | inactive | 25 µg/mL (≈ 45.2 µM) | inactive | 50 µg/mL (≈ 90.3 µM)
CN1CCN(c2cc3ncnc(Sc4nnc(-c5cccnc5)o4)c3cc2NC(=O)Nc2ccc(Cl)cc2)CC1 | inactive | 6.25 µg/mL (≈ 10.9 µM) | inactive | 12.5 µg/mL (≈ 21.8 µM) | inactive | 25 µg/mL (≈ 43.5 µM) | inactive | 50 µg/mL (≈ 87.1 µM)
CN1CCN(c2cc3ncnc(Sc4nnc(-c5cccnc5)o4)c3cc2NC(=O)Nc2cccc(Cl)c2)CC1 | inactive | 12.5 µg/mL (≈ 21.8 µM) | inactive | 50 µg/mL (≈ 87.1 µM) | inactive | 6.25 µg/mL (≈ 10.9 µM) | inactive | 25 µg/mL (≈ 43.5 µM)
O=C(Nc1ccc(Cl)cc1)Nc1ccc2ncnc(Sc3nnc(-c4cccnc4)o3)c2c1 | inactive | 12.5 µg/mL (≈ 26.3 µM) | inactive | 75 µg/mL (≈ 158 µM) | inactive | 6.25 µg/mL (≈ 13.1 µM) | inactive | 25 µg/mL (≈ 52.5 µM)
CN1CCN(c2cc3ncnc(Sc4nnc(-c5cccnc5)o4)c3cc2NC(=O)Nc2ccc(-c3ccccc3)cc2)CC1 | inactive | 100 µg/mL (≈ 162 µM) | inactive | 50 µg/mL (≈ 81.2 µM) | inactive | 25 µg/mL (≈ 40.6 µM) | inactive | 25 µg/mL (≈ 40.6 µM)

The next lines start with the values.

MIC (Bacillus subtilis) | MIC (Bacillus subtilis; ATCC 6633, 24 h) | MIC (Escherichia coli) | MIC (Escherichia coli; ATCC 25922, 24 h) | MIC (Staphylococcus aureus) | MIC (Staphylococcus aureus; ATCC 25923, 24 h) | MIC (Pseudomonas aeruginosa) | MIC (Pseudomonas aeruginosa; ATCC 27853, 24 h) | SMILES
inactive | 75 µg/mL (≈ 134 µM) | inactive | 25 µg/mL (≈ 44.5 µM) | inactive | 100 µg/mL (≈ 178 µM) | inactive | 50 µg/mL (≈ 89 µM) | CN1CCN(c2cc3ncnc(Sc4nnc(-c5cccnc5)o4)c3cc2NC(=S)NC2CCCCC2)CC1
inactive | 100 µg/mL (≈ 181 µM) | inactive | 50 µg/mL (≈ 90.3 µM) | inactive | 12.5 µg/mL (≈ 22.6 µM) | inactive | 100 µg/mL (≈ 181 µM) | Cc1ccccc1NC(=O)Nc1cc2c(Sc3nnc(-c4cccnc4)o3)ncnc2cc1N1CCN(C)CC1
inactive | 50 µg/mL (≈ 106 µM) | inactive | 25 µg/mL (≈ 53 µM) | inactive | 75 µg/mL (≈ 159 µM) | inactive | 100 µg/mL (≈ 212 µM) | Cc1ccccc1NC(=S)Nc1ccc2ncnc(Sc3nnc(-c4cccnc4)o3)c2c1
inactive | 25 µg/mL (≈ 43.9 µM) | inactive | 25 µg/mL (≈ 43.9 µM) | inactive | 50 µg/mL (≈ 87.8 µM) | inactive | 100 µg/mL (≈ 176 µM) | Cc1cccc(NC(=S)Nc2cc3c(Sc4nnc(-c5cccnc5)o4)ncnc3cc2N2CCN(C)CC2)c1
inactive | 50 µg/mL (≈ 87.8 µM) | inactive | 50 µg/mL (≈ 87.8 µM) | inactive | 12.5 µg/mL (≈ 21.9 µM) | inactive | 50 µg/mL (≈ 87.8 µM) | Cc1ccc(NC(=S)Nc2cc3c(Sc4nnc(-c5cccnc5)o4)ncnc3cc2N2CCN(C)CC2)cc1
inactive | 25 µg/mL (≈ 56.6 µM) | inactive | 25 µg/mL (≈ 56.6 µM) | inactive | 12.5 µg/mL (≈ 28.3 µM) | inactive | 50 µg/mL (≈ 113 µM) | O=C(Nc1ccccc1)Nc1ccc2ncnc(Sc3nnc(-c4cccnc4)o3)c2c1
inactive | 25 µg/mL (≈ 54.9 µM) | inactive | 12.5 µg/mL (≈ 27.4 µM) | inactive | 25 µg/mL (≈ 54.9 µM) | inactive | 50 µg/mL (≈ 110 µM) | Cc1cccc(NC(=O)Nc2ccc3ncnc(Sc4nnc(-c5cccnc5)o4)c3c2)c1
